Legend:
TLR4 = TLR4 (Homo sapiens, UniProt O00206); assay: TLR4 inhibitory and activating activity in THP-1 cells; type: cell-based; set-up: endogenous in cells; host or cells: THP-1 monocytes, PMA-stimulated
hPBMC = assay: Cytotoxicity in hPBMC (MTT); type: cell-based, human; conditions: 0.1, 1.0, 10, 100 and 1000 μM, 24 h
Procedure: The cells were treated with compounds and incubated for 24 h. Cell viability was assessed using MTT cell proliferation kit (Promega). All the compounds were not toxic to hPMBC (FIG. 12).

HUVECs [1] = assay: Cytotoxicity in HUVECs (MTT); type: cell-based, human; conditions: 100 μM, 24 h
Procedure: Selected TLR2/4 antagonist compounds 2, 6, 7, 8, 14, 17 and 32 were evaluated for cytotoxicity in HUVECs at 100 μM concentration. The cells were treated with compounds and incubated for 24 h. Cell viability was assessed using MTT cell proliferation kit (Promega). All the compounds were not toxic to HUVECs (FIG. 15).

neonatal pups with BPD = assay: Hyperoxia mouse model of BPD (newborn pups); type: in vivo; conditions: for lung injury in neonatal pups with BPD: mouse model of BPD; for TLR4 inhibition in an in vivo model system: neonatal pups with BPD; for lung architecture: saline IV and nanosuspension IN
From the text: Neonatal mice and humans undergo similar stages of lung development but differ with respect to the duration of each stage and its temporal relationship to gestational age. The lungs of the mouse born at term are in the saccular stage and are surfactant sufficient; this can be considered somewhat akin to a human preterm neonate in the same stage of lung development that has been exposed to a full complement of antenatal steroids (which is known to enhance surfactant production). In terms of mimicking the human condition, the most successful hyperoxia models are those that limit exposure to hyperoxia to the saccular stage of pulmonary development. The mouse BPD model involves exposing newborn mice (postnatal day 1 or PN1) to 100% oxygen till PN4 followed by recovery in room air (RA) for another 10 days.
After the recovery period, their lungs were harvested and processed for quantitative PCR, western blotting, histopathology and ELISA.
Each of the compounds 3, 8 or 32 encapsulated in PLGA nanoparticles referred as 3NP, 8NP and 32NP was instilled intranasally (IN) as nanosuspension to newborn pups on PN2 and PN4 at different doses (FIG. 28). After the recovery period, their lungs were harvested and processed for quantitative PCR, western blotting and histopathology and ELISA.
BPD is characterized by large simplified alveoli, inflammation, increased cell death, decreased cell proliferation, dysmorphic capillary configuration, and variable interstitial cellularity and/or fibroproliferation. […] This is determined by measuring the alveolar chord length, septal thickness and radial alveolar count (RAC). In BPD, the alveolar area increases which is characterized by increase in the diameter of the alveolar sacs, the septa become thickened (thus interfering in gaseous exchange) and the RAC, a parameter used to assess the complexity of terminal respiratory unit by pulmonologists, decreases as a result of arrested lung development.

HUVECs [2] = assay: Anti-angiogenic activity, VEGF induced tube formation in HUVECs; type: cell-based, human; conditions: VEGF 100 ng/mL
Procedure: Selected TLR2/4 antagonist compounds 2, 6, 7, 8, 14, 17 and 32 were evaluated for anti-angiogenic activity using the Tube Formation kit (Cat #3470-096-K). VEGF (100 ng/mL) was used as positive control. These compounds have potential applications in diseases associated with pathological angiogenesis such as solid tumor, […], diabetic retinopathy as well as AMD.

THP-1 cells = assay: Monocyte differentiation, phagocytosis and intracellular killing of Pseudomonas aeruginosa in THP-1 cells; type: cell-based, human
From the text: Two of these compounds 8 and 32 stimulated monocyte differentiation into macrophages, increased phagocytosis of Pseudomonas aeruginosa (FIG. 18) and increased intracellular killing of bacteria (FIG. 19). These compounds have potential to be used as vaccine adjuvants and in combination with existing antibiotic for prophylactic treatment such as in cystic fibrosis patients.

[3] = tested on: normal lung epithelial cells (AT-1); conditions: 1 mM and 2 mM, 48 h
Procedure: Compounds 8, 17, 29 and 35 were tested for cytotoxicity in normal lung epithelial cells (AT-1) at concentrations of 1 mM and 2 mM. The cells were treated with compounds and incubated for 48 h. Cell viability was assessed using tryptan blue live/dead assay.

[4] = tested on: P. aeruginosa (ATCC-10145 GFP) infected skin wounds; assay: Murine skin wound infection with P. aeruginosa; type: in vivo, C57BL/6 mice
Procedure: Five groups of C57BL/6 mice (8-10 weeks old, n=4) were wounded on the dorsal surface. 25 ul containing 10^6 CFU/mL P. aeruginosa in a PBS suspension were pipetted onto the wound and allowed to absorb for at least 3 min. […] Subsequently and for the next 13 days, infected wounds were treated each alternate day with colistin, or with test compounds.

Chain of TLR4 (O00206 24-839): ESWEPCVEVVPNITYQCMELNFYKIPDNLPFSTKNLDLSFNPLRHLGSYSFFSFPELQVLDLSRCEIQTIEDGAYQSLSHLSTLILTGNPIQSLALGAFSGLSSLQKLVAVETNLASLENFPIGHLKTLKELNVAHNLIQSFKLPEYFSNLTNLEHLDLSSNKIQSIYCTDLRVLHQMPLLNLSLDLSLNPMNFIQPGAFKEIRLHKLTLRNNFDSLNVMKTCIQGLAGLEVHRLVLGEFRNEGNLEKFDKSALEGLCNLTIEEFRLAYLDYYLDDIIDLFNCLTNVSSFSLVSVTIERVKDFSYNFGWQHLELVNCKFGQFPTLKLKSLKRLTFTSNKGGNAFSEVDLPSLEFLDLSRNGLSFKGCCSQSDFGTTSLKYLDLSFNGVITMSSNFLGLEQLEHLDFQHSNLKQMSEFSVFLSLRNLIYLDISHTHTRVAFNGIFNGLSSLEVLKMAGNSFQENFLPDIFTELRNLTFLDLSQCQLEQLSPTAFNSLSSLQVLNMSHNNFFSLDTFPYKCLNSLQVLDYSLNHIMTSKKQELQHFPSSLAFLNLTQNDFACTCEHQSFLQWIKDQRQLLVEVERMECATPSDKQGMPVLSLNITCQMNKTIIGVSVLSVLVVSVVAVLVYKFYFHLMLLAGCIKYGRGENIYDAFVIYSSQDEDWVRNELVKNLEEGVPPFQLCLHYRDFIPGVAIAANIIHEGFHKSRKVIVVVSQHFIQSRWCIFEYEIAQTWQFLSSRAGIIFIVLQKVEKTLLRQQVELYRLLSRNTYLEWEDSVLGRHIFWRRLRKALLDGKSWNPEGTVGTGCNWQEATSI

## CC(=O)NC1[C@H](Oc2cccc3sc(NC(=O)C(C)(C)C)nc23)O[C@H](CO)[C@@H](O)[C@@H]1O (single isomer, unassigned) [Compound 23]
TLR4
  TLR2/4 antagonist or TLR4 agonist activity as shown in Table-1: TLR4 agonists

## CC(=O)NC1[C@H](Oc2ccc(N3CCN(C(C)=O)CC3)cc2)O[C@H](CO)[C@@H](O)[C@@H]1O (single isomer, unassigned) [Compound 28]
TLR4
  TLR2/4 antagonist or TLR4 agonist activity as shown in Table-1: TLR4 agonists

## CC(=O)NC1[C@H](Oc2ccc3c(C)cc(=O)oc3c2)O[C@H](CO)[C@@H](O)[C@@H]1O (single isomer, unassigned) [Compound 29]
TLR4
  TLR2/4 antagonist or TLR4 agonist activity as shown in Table-1: TLR4 agonists

## CC(=O)NC1[C@H](Oc2ccc(B3OC(C)(C)C(C)(C)O3)cc2)O[C@H](CO)[C@@H](O)[C@@H]1O (single isomer, unassigned) [Compound 32, p-Pinacoloneboronatephenyl 2-acetamido-2-deoxy-β-D-glucopyranoside]
hPBMC
  cytotoxicity in hPBMC: not toxic
HUVECs [1]
  cytotoxicity in HUVECs: not toxic
Neonatal pups with BPD
  lung injury in neonatal pups with BPD: prevent lung injury
  TLR4 inhibition in an in vivo model system: inhibit TLR4
  lung architecture: restored
HUVECs [2]
  VEGF induced tube formation: significantly deceased
THP-1 cells
  monocyte differentiation into macrophages: stimulated
THP-1 cells; Pseudomonas aeruginosa, THP-1 cells
  intracellular killing of bacteria: increased
THP-1 cells; THP-1 cells
  phagocytosis of Pseudomonas aeruginosa: increased

## CC(=O)NC1C(Oc2ccc3nonc3c2)OC(CO)C(O)C1O (stereo in doubt) [Compound 17, N-((2S,3R,4S,5S,6R)-2-(benzo[c][1,2,5]oxadiazol-5-yloxy)-4,5-dihydroxy-6-(hydroxymethyl)tetrahydro-2H-pyran-3-yl)acetamide]
hPBMC
  cytotoxicity in hPBMC: not toxic
TLR4
  TLR2/4 antagonist or TLR4 agonist activity as shown in Table-1: TLR4 agonists
HUVECs [1]
  cytotoxicity in HUVECs: not toxic
HUVECs [2]
  VEGF induced tube formation: significantly deceased

## CC(=O)N[C@@H]1[C@@H](OC(C)=O)[C@H](OC(C)=O)[C@@H](COC(C)=O)O[C@H]1NC(=O)c1ccc(O[C@@H]2O[C@H](CO)[C@@H](O)[C@H](O)[C@H]2NC(C)=O)cc1 [Compound 2]
hPBMC
  cytotoxicity in hPBMC: not toxic
HUVECs [1]
  cytotoxicity in HUVECs: not toxic
HUVECs [2]
  VEGF induced tube formation: significantly deceased

## CC(=O)N[C@@H]1[C@@H](O)[C@H](O)[C@@H](CO)O[C@H]1NC(=O)c1ccc(O[C@@H]2O[C@H](CO)[C@@H](O)[C@H](O)[C@H]2NC(C)=O)cc1 [Compound 3]
Neonatal pups with BPD
  lung injury in neonatal pups with BPD: prevent lung injury
  TLR4 inhibition in an in vivo model system: inhibit TLR4
  lung architecture: restored

## CC(=O)N[C@H]1[C@H](Oc2ccc(C(=O)Nc3ccc(O[C@@H]4O[C@H](COC(C)=O)[C@@H](OC(C)=O)[C@H](OC(C)=O)[C@H]4NC(C)=O)cc3)cc2)O[C@H](CO)[C@@H](O)[C@@H]1O [Compound 6]
HUVECs [1]
  cytotoxicity in HUVECs: not toxic
HUVECs [2]
  VEGF induced tube formation: significantly deceased

## CC(=O)N[C@H]1[C@H](Oc2ccc(NC(=O)c3ccc(O[C@@H]4O[C@H](CO)[C@@H](O)[C@H](O)[C@H]4NC(C)=O)cc3)cc2)O[C@H](CO)[C@@H](O)[C@@H]1O [Compound 7]
hPBMC
  cytotoxicity in hPBMC: not toxic
HUVECs [1]
  cytotoxicity in HUVECs: not toxic
HUVECs [2]
  VEGF induced tube formation: significantly deceased

## CC(=O)N[C@H]1[C@H](Oc2ccc(C#N)cc2)O[C@H](CO)[C@@H](O)[C@@H]1O [Compound 14, p-Cyanophenyl 2-acetamido-2-deoxy-β-D-glucopyranoside]
hPBMC
  cytotoxicity in hPBMC: not toxic
HUVECs [1]
  cytotoxicity in HUVECs: not toxic
HUVECs [2]
  VEGF induced tube formation: significantly deceased

## CC(=O)N[C@H]1[C@H](Oc2ccc3c(C)cc(=O)oc3c2)O[C@H](COS(=O)(=O)O)[C@@H](O)[C@@H]1O [Compound 30]
TLR4
  TLR2/4 antagonist or TLR4 agonist activity as shown in Table-1: TLR4 agonists

## COc1ccc(OC2OC(CO)C(O)C(O)[C@@H]2NC(C)=O)cc1 (stereo partly shown) [Compound 38]
TLR4
  TLR2/4 antagonist or TLR4 agonist activity as shown in Table-1: TLR4 agonists

## CC(=O)N[C@@H]1C(Oc2ccc(Cl)cc2)OC(CO)C(O)C1O (stereo partly shown) [Compound 39]
TLR4
  TLR2/4 antagonist or TLR4 agonist activity as shown in Table-1: TLR4 agonists

## CC(=O)N[C@@H]1C(Oc2ccccc2O)OC(CO)C(O)C1O (stereo partly shown) [Compound 40]
TLR4
  TLR2/4 antagonist or TLR4 agonist activity as shown in Table-1: TLR4 agonists

## CC(=O)O[C@H]1C(=O)[C@@]2(C)[C@H]([C@H](OC(=O)c3ccccc3)[C@]3(O)C[C@H](OC(=O)[C@H](O)[C@@H](NC(=O)c4ccccc4)c4ccccc4)C(C)=C1C3(C)C)[C@]1(OC(C)=O)CO[C@@H]1C[C@@H]2O [Taxol]
[3]
  cytotoxicity in normal lung epithelial cells (AT-1): toxic

## colistin [reference compound]
[4]; 25 μl Colistin 4 μg/ml or compound 100 μg/ml, each alternate day
  wound closure at day 13: complete closure
[4]; H&E histology, day 13 post-injury
  re-epithelialization and granulation tissue versus controls: significantly enhanced

From patent publication US20200022995A1, “Novel Immunodulating Small Molecules” (AyuVis Research, Inc., priority 2018, published 2020)
